Results as given in ChEMBL document CHEMBL5584313, “Design and Synthesis of 7-Oxabicyclo[2.2.1]heptane-2,3-dicarboxylic Acid Derivatives as PP5 Inhibitors To Reverse Temozolomide Resistance in Glioblastoma Multiforme” (J Med Chem, 2024).
≈ marks a conversion by molar mass, not a printed value. Calls of active or inactive are those of the source. The calls are words filed in the database; no cut-off is given here.

Experiments:
[1] = species: Homo sapiens; assay: Selectivity ratio of IC50 for PP1 (unknown origin ) to IC50 for PP5 (unknown origin)
[2] = Half-life in Sprague-Dawley rat at 5 mg/kg, iv measured upto 24 hrs by LC-MS/MS method; type: ADME, organism-based; settings: in vivo
[3] = Aqueous stability of compound assessed as compound remaining measured at 240 mins by HPLC assay; type: physicochemical; settings: aqueous solution, read-out: Stability
[4] = test system: U-87 MG; assay: Synergistic antiproliferative activity against human U-87 MG cells at 10 uM in presence of TMZ; type: functional, cell-based; settings: U-87MG ATCC
[5] = test system: U-87MG ATCC; assay: Upregulation of p53 expression in human U-87 MG cells at 25 uM after 24 hrs in presence TMZ by Western blotting analysis; type: functional, cell-based
[6] = Stability of compound in stimulated intestinal fluid assessed as remaining compound after 24 hrs by HPLC method; type: ADME; settings: simulated intestinal fluid, read-out: Stability
[7] = MRT(0 to infinity) in Sprague-Dawley rat at 25 mg/kg, po measured upto 24 hrs by LC-MS/MS method; type: ADME, organism-based; settings: in vivo
[8] = Toxicity in BALB/c nude mouse xenografted with U-87 MG cells assessed as liver damage at 1.5 to 3 mg/kg, po administered every other day for 18 days in presence of 40 mg/kg TMZ by H and E staining based assay; type: organism-based; settings: in vivo, 432 h, dose 1.5-3 mg/kg, time 18 day
[9] = test system: U-87 MG; assay: Antitumor activity against human U-87 MG cells xenografted in BALB/c nude mouse assessed as tumor growth inhibition at 1.5 mg/kg, po administered every other day for 18 days in presence of 40 mg/kg TMZ; type: functional, U-87MG ATCC; settings: 432 h, time 18 day, read-out: TGI
[10] = Toxicity in BALB/c nude mouse xenografted with U-87 MG cells assessed as heart damage at 1.5 to 3 mg/kg, po administered every other day for 18 days in presence of 40 mg/kg TMZ by H and E staining based assay; type: organism-based; settings: in vivo, 432 h, dose 1.5-3 mg/kg, time 18 day
[11] = Cmax in Sprague-Dawley rat at 25 mg/kg, po measured upto 24 hrs by LC-MS/MS method; type: ADME, organism-based; settings: in vivo
[12] = test system: U-87 MG; assay: Antitumor activity against human U-87 MG cells xenografted in BALB/c nude mouse assessed as tumor tissue necrosis at 1.5 to 3 mg/kg, po administered every other day for 18 days in presence of 40 mg/kg TMZ; type: functional, organism-based; settings: U-87MG ATCC, dose 1.5-3 mg/kg, time 18.0 day
[13] = test system: U-87 MG; assay: Antitumor activity against human U-87 MG cells xenografted in BALB/c nude mouse assessed as reduction in tumor weight at 3 mg/kg, po administered every other day for 18 days in presence of 40 mg/kg TMZ; type: functional, organism-based; settings: U-87MG ATCC, time 18.0 day
[14] = Stability of compound in stimulated gastric fluid assessed as remaining compound after 24 hrs by HPLC method; type: ADME; settings: simulated gastric fluid, read-out: Stability
[15] = test system: U-87MG ATCC; assay: Downregulation of MGMT expression in human U-87 MG cells at 25 uM incubated for 24 hrs in presence of TMZ by Western blotting analysis; type: functional, cell-based
[16] = Toxicity in BALB/c nude mouse xenografted with U-87 MG cells assessed as kidney damage at 1.5 to 3 mg/kg, po administered every other day for 18 days in presence of 40 mg/kg TMZ by H and E staining based assay; type: organism-based; settings: in vivo, 432 h, dose 1.5-3 mg/kg, time 18 day
[17] = test system: A549; assay: Cytotoxicity against human A549 cells incubated for 48 hrs by CCK8 assay; type: functional, cell-based; settings: A549, 48 h
[18] = Apparent volume of distribution in Sprague-Dawley rat at 25 mg/kg, po measured upto 24 hrs by LC-MS/MS method; type: ADME, organism-based; settings: in vivo
[19] = Toxicity in BALB/c nude mouse xenografted with U-87 MG cells assessed as change in body weight at 1.5 to 3 mg/kg, po administered every other day for 18 days in presence of 40 mg/kg TMZ; type: organism-based; settings: in vivo, 432 h, dose 1.5-3 mg/kg, time 18 day
[20] = species: Homo sapiens; assay: Selectivity ratio of IC50 for PP2A (unknown origin ) to IC50 for PP5 (unknown origin)
[21] = Aqueous solubility of compound by HPLC method; type: physicochemical; settings: water
[22] = AUC(0 to infinity) in Sprague-Dawley rat at 5 mg/kg, iv measured upto 24 hrs by LC-MS/MS method; type: ADME, organism-based; settings: in vivo
[23] = Stability of compound in water assessed as remaining compound after 24 hrs; type: physicochemical; settings: read-out: Stability
[24] = Cytotoxicity against HUVECs incubated for 48 hrs by CCK8 assay; type: toxicity, cell-based; settings: human, HUVEC cells
[25] = Apparent clearance in Sprague-Dawley rat at 5 mg/kg, iv measured upto 24 hrs by LC-MS/MS method; type: ADME, organism-based; settings: in vivo, read-out: CL(app) (converted)
[26] = test system: U-87 MG; assay: Induction of apoptosis in human U-87 MG cells assessed as S phase cells at 5 uM incubated for 24 hrs by propidium iodide staining based flow cytometry analysis (reference value: 29.4%); type: functional, U-87MG ATCC
[27] = test system: U-87MG ATCC; assay: Upregulation of p27 expression in human U-87 MG cells at 6.25 to 100 uM after 24 hrs by Western blotting analysis; type: functional, cell-based; settings: dose 6.25-100 µM
[28] = test system: U-87MG ATCC; assay: Upregulation of p53 expression in human U-87 MG cells at 6.25 to 100 uM after 24 hrs by Western blotting analysis; type: functional, cell-based; settings: dose 6.25-100 µM
[29] = test system: U-87 MG; assay: Synergistic antiproliferative activity against human U-87 MG cells in presence of TMZ; type: functional, cell-based, U-87MG ATCC
[30] = Tmax in Sprague-Dawley rat at 5 mg/kg, iv measured upto 24 hrs by LC-MS/MS method; type: ADME, organism-based; settings: in vivo
[31] = MRT(0 to infinity) in Sprague-Dawley rat at 5 mg/kg, iv measured upto 24 hrs by LC-MS/MS method; type: ADME, organism-based; settings: in vivo
[32] = test system: HCT-116; assay: Cytotoxicity against human HCT-116 cells incubated for 48 hrs by CCK8 assay; type: functional, cell-based; settings: HCT-116, 48 h
[33] = test system: U-87 MG; assay: Antitumor activity against human U-87 MG cells xenografted in BALB/c nude mouse assessed as tumor growth retardation at 3 mg/kg, po administered every other day for 18 days; type: functional, organism-based; settings: U-87MG ATCC, time 18.0 day
[34] = test system: U-87 MG; assay: Antitumor activity against human U-87 MG cells xenografted in BALB/c nude mouse assessed as increase in p53 expression at 3 mg/kg, po measured after 4 hrs by Western blotting analysis; type: functional, organism-based; settings: U-87MG ATCC
[35] = Half-life in Sprague-Dawley rat at 25 mg/kg, po measured upto 24 hrs by LC-MS/MS method; type: ADME, organism-based; settings: in vivo
[36] = test system: U-87MG ATCC; assay: Downregulation of cyclin D1 expression in human U-87 MG cells at 25 uM incubated for 24 hrs by Western blotting analysis; type: functional, cell-based
[37] = test system: U-87 MG; assay: Induction of apoptosis in human U-87 MG cells assessed as G0/G1 phase cells at 5 uM incubated for 24 hrs by propidium iodide staining based flow cytometry analysis (reference value: 58.8%); type: functional, U-87MG ATCC
[38] = Tmax in Sprague-Dawley rat at 25 mg/kg, po measured upto 24 hrs by LC-MS/MS method; type: ADME, organism-based; settings: in vivo
[39] = AUC(0 to infinity) in Sprague-Dawley rat at 25 mg/kg, po measured upto 24 hrs by LC-MS/MS method; type: ADME, organism-based; settings: in vivo
[40] = Stability in mouse plasma assessed as half life measured upto 300 mins by LC-MS/MS analysis; type: ADME, cell-free

Ratio IC50 [1]: 21.4
half-life [2]: 2.41 h
remaining at 4 h [3]: 99.8%
remaining at 24 h [6]: 96%
MRT inf [7]: 5 h
Cmax [11]: 11300 ng/mL
remaining at 24 h [14]: 92%
Vz [18]: 2.62804 L/kg
Ratio IC50 [20]: 38
solubility [21]: 552 µg/mL (≈ 1930 µM)
AUC(0-inf) [22]: 13300 ng·h/mL
remaining at 24 h [23]: 98.3%
clearance [25]: 6.3 mL/min/kg
IC50 [29]: 19.8 µM
Tmax [30]: 1.2 min
MRT inf [31]: 5.52 h
half-life [35]: 3.94 h
Tmax [38]: 1.17 h
AUC(0-inf) [39]: 54400 ng·h/mL
half-life [40]: 2.09 h
SMILES: O=C(O)[C@@H]1[C@H](C(=O)n2ccc3ccccc32)[C@H]2CC[C@@H]1O2
Activity [4]: Active
Activity [5]: Active
Activity [8]: Non-Toxic
inhibition in vivo at 1.5 mg/kg [9]: 70.9%
Activity [10]: Non-Toxic
Activity [12]: Active
Activity [13]: Active
Activity [15]: Active
Activity [16]: Non-Toxic
IC50 [17]: 69.6 µM
Activity [19]: Non-Toxic
IC50 at 48 h [24]: > 200 µM
Activity [26]: 19.2%
Activity [27]: Active
Activity [28]: Active
IC50 [32]: 26.5 µM
Activity [33]: Active
Activity [34]: Active
Activity [36]: Active
Activity [37]: 72.2%
